molecular target: TrkA receptor (Homo sapiens (Human), UniProt P04629); assay: DiscoverX PathHunter TrkA functional assay (U2OS cells, NGF stimulated); assay type: cell-based; conditions: U2OS cells expressing TrkA-Prolink and Shc1-EA; compound 1 hour, then EC80 of NGF for 3 hours; luminescence
Description: TrkA functional activity was measured using a DiscoverX PathHunter assay. In this assay, U2OS cells are express TrkA receptor as a fusion with the weakly complementing fragment of B-galactosidase, which DiscoverX calls “Prolink (PK)”; additionally, Shc1 is fused with a larger fragment, which is called “Enzyme Acceptor (EA)”. Activation of the TrkA receptor, upon NGF addition, results in the kinase domain being phosphorylated, resulting in subsequent recruitment of Shc1-EA protein. That recruitment results in an active B-galactosidase enzyme that is detected by addition of a chemiluminescent substrate.
All reagents were purchased from DiscoverX, except for the receptor agonists (NGF, BDNF, NT3) which were purchased from Peprotech. Cells were expanded and frozen into cryovials (TrkA p75 @ passage 13, 1.5×10^7 cells/vial; TrkC p75 @ passage 11, 1.5×10^7 cells/vial in InVitrogen Recovery Cell Freezing media), and stored in the vapor phase of liquid nitrogen, and thawed immediately before use. Thawed cells were added to a 384-well plate (BD Falcon 384-well white/clear, TC surface 120 uL assay plates (353963), 20 uL of 0.375e6 cells/mL=>7500 cells/well), and allowed to incubate overnight. Compound (10 mM starting dose: 202.5 nL compound yielding 0.81% DMSO final in total assay volume and starting doses 81 uM) was added the following morning and allowed to incubate on cells for 1 hour. Then, 5 uL EC80 of agonist (NGF for TrkA; BDNF for TrkB; NT3 for TrkC) was added and allowed to incubate for 3 hours at room temperature. DiscoverX PathHunter detection reagent is added (12 uL to plate and components diluted in parts as per kit instructions) and the plate is further incubated for 1 hour in the dark. The plate is read via luminescence on the Perkin Elmer Envision.

Chain of TrkA receptor (P04629 33-796): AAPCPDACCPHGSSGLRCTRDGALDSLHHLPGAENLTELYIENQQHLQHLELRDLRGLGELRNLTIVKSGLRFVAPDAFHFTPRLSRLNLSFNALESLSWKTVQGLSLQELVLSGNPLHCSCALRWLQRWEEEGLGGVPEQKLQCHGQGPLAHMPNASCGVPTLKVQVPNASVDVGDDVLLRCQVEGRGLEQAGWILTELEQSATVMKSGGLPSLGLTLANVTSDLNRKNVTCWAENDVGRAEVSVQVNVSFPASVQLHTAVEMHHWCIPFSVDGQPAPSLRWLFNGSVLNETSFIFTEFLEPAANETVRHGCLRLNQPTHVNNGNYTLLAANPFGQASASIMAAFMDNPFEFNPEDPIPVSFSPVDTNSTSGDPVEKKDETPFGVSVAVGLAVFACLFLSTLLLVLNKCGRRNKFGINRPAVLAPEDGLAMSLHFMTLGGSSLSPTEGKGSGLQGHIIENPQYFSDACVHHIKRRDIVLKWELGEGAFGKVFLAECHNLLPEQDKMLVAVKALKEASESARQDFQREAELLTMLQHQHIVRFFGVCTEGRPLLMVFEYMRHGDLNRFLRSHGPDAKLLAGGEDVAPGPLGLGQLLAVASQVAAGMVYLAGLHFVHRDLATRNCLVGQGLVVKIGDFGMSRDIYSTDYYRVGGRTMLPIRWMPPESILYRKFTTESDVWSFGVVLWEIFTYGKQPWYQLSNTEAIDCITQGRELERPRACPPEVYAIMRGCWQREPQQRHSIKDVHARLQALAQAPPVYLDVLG

Row | Structure (SMILES) | IC50
1 | Cn1ncc(NC(=O)NCc2ccccc2C(F)(F)F)c1-c1ccccc1 [Compound 42, 1-(1-methyl-5-phenyl-1H-pyrazol-4-yl)-3-[2-(trifluoromethyl)benzyl]urea] | 1400 nM
2 | Cc1ncc(NC(=O)NCc2cc(F)ccc2C(F)(F)F)c(-c2ccccc2)n1 [Compound 43, 1-[5-fluoro-2-(trifluoromethyl)benzyl]-3-(2-methyl-4-phenylpyrimidin-5-yl)urea] | 1400 nM
3 | Cn1ncc(NC(=O)NCc2ccccc2OC(F)(F)F)c1-c1ccccc1 [Compound 46, 1-(1-methyl-5-phenyl-1H-pyrazol-4-yl)-3-[2-(trifluoromethoxy)benzyl]urea] | 1600 nM

The next compounds have a lower IC50 than those just listed; values first:

Row | IC50 | Structure (SMILES)
4 | 420 nM | O=C(NCc1ccccc1SC(F)(F)F)Nc1ccnn1-c1ccccc1 [Compound 44, 1-(1-phenyl-1H-pyrazol-5-yl)-3-{2-[(trifluoromethyl)sulfanyl]benzyl}urea]
5 | 420 nM | Cc1onc(-c2ccccc2)c1NC(=O)NCc1ccccc1SC(F)(F)F [Compound 45, 1-(5-methyl-3-phenylisoxazol-4-yl)-3-{2-[(trifluoromethyl)sulfanyl]benzyl}urea]
